# Experimental data: ChEMBL document CHEMBL1151569, “Diphenylmethyl ethers: synthesis and histamine H3-receptor antagonist in vitro and in vivo activity” (Bioorg Med Chem Lett, 1996)
# What was measured:
# [1] = target: Histamine H1 receptor (Cavia porcellus) (UniProt P31389); assay: In vitro antagonistic activity against histamine H1-receptor of guinea pig ileum; type: functional, tissue-based
# [2] = target: Histamine H2 receptor (Cavia porcellus) (UniProt P47747); assay: In vitro antagonistic activity against histamine H2-receptor of guinea pig atrium; type: functional, tissue-based; settings: Cardiac atrium
# [3] = target: Histamine H3 receptor (Mus musculus) (UniProt P58406); assay: In vivo antagonistic activity against histamine H3-receptor of Swiss mice brain after peroral administration; type: functional, organism-based
# Histamine H3 receptor = Histamine H3 receptor (Rattus norvegicus, UniProt Q9QYN8); assay: In vitro antagonistic activity against histamine H3-receptor in an assay with K+-evoked depolarisation-induced release of [3H]histamine of synaptosomes of rat cerebral cortex; type: functional, subcellular, Brain
# Sequence of Histamine H3 receptor (Q9QYN8 whole entry): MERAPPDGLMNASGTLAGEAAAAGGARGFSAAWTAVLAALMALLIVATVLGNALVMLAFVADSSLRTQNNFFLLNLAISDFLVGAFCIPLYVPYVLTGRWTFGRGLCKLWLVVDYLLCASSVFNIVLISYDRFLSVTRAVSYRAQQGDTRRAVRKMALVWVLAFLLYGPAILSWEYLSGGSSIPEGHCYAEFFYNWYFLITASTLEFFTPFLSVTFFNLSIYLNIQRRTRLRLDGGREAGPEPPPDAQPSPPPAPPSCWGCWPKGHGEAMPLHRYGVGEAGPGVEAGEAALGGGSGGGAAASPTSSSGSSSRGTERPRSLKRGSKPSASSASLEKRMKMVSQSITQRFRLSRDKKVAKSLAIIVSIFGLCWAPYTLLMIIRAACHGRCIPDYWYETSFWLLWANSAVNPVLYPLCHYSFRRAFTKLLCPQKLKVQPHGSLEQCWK
# Sequence of Histamine H1 receptor (Cavia porcellus) (P31389 whole entry): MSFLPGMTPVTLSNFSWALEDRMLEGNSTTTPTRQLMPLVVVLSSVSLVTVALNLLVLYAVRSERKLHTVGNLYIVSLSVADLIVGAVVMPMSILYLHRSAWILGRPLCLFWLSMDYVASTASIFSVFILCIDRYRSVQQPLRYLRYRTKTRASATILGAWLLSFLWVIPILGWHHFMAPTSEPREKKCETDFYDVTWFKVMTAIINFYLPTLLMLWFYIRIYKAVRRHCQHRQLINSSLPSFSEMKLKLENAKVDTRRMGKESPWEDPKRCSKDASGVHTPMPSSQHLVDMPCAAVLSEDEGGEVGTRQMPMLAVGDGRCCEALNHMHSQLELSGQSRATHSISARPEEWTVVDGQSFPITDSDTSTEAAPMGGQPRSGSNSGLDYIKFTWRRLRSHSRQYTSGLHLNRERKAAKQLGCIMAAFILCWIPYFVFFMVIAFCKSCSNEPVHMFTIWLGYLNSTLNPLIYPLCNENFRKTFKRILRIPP
# Sequence of Histamine H2 receptor (Cavia porcellus) (P47747 whole entry): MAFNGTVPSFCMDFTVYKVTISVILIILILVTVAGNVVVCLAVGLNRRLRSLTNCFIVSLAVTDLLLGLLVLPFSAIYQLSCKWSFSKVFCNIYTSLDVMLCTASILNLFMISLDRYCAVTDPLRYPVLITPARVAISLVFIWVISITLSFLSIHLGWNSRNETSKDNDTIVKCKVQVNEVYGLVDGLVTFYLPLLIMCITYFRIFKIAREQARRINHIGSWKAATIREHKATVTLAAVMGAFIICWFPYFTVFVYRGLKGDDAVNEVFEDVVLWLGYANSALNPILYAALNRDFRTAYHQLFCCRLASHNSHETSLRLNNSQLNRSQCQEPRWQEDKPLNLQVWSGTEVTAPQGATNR
# Sequence of Histamine H3 receptor (Mus musculus) (P58406 whole entry): as the sequence (Q9QYN8 whole entry) above, with T15A, A286T, A290G, R387H, I389V counted along it
Structure (SMILES),Kb [1],-Log K [2],ED50 [3],Ki (Histamine H3 receptor)
N=C(NCc1ccc(Cl)cc1)SCCCc1c[nH]cn1,> 1000 nM,< 6,26 mg/kg,–
FC(F)(F)c1ccc(C(OCCCc2c[nH]cn2)c2ccccc2)cc1 (stereo not given),–,–,> 10 mg/kg,200 nM
Fc1ccc(C(OCCCc2c[nH]cn2)c2ccc(F)cc2)cc1,–,5.6,1.1 mg/kg,25.1 nM
c1ccc(C(OCCCc2c[nH]cn2)c2ccccc2)cc1,501 nM,5.5,2.4 mg/kg,25.1 nM
Clc1ccc(C(OCCCc2c[nH]cn2)c2ccccc2)cc1 (stereo not given),–,5.2,3.9 mg/kg,–
c1ccc(COCCCc2c[nH]cn2)cc1,20000 nM,3.7,> 10 mg/kg,20 nM
Fc1ccc(C(OCCCc2c[nH]cn2)c2ccccc2)cc1 (stereo not given),–,5.3,1.2 mg/kg,25.1 nM
c1ccc2c(COCCCc3c[nH]cn3)cccc2c1,–,4.9,3.2 mg/kg,20 nM
S=C(NC1CCCCC1)N1CCC(c2cnc[nH]2)CC1,> 100000 nM,< 5,1 mg/kg,–
Brc1ccc(C(OCCCc2c[nH]cn2)c2ccccc2)cc1 (stereo not given),–,5.4,3.6 mg/kg,126 nM
